Measured values taken from PubChem BioAssay (NCI).
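96-well plates; 48 h exposure; 5 concentrations. Endpoints by linear interpolation between flanking doses. Not reached: highest tested concentration assigned. At the TGI there is no net growth.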

Assays:
Experiment in all cases: NCI tumour cell line growth inhibition, 48 h
HL-60(TB) leukemia = test system: HL-60(TB) leukemia
OVCAR-5 ovarian = test system: OVCAR-5 ovarian
IGROV1 ovarian = test system: IGROV1 ovarian
CCRF-CEM leukemia = test system: CCRF-CEM leukemia
SR leukemia = test system: SR leukemia
NCI-H522 lung = test system: NCI-H522 lung
LOX IMVI melanoma = test system: LOX IMVI melanoma
SK-MEL-28 melanoma = test system: SK-MEL-28 melanoma
A549 NSCLC = test system: A549 NSCLC
SNB-75 CNS = test system: SNB-75 CNS
MDA-N = test system: MDA-N
NCI-H226 lung = test system: NCI-H226 lung

Compound | TGI (HL-60(TB) leukemia) [µM] | TGI (OVCAR-5 ovarian) [µM] | TGI (IGROV1 ovarian) [µM] | TGI (CCRF-CEM leukemia) [µM] | TGI (SR leukemia) [µM] | TGI (NCI-H522 lung) [µM] | TGI (LOX IMVI melanoma) [µM] | TGI (SK-MEL-28 melanoma) [µM] | TGI (A549 NSCLC) [µM] | TGI (SNB-75 CNS) [µM] | TGI (MDA-N) [µM] | TGI (NCI-H226 lung) [µM]
O=C1Nc2ccccc2/C1=N/N1C(=O)/C(=C/c2ccccc2S)N=C1c1ccccc1 | > 100 | > 100 | > 100 | > 100 | > 100 | > 100 | > 100 | > 100 | > 100 | > 100 | > 100 | 
CNC(=O)OCc1nc(N=[N+]=[N-])n(C)c1COC(=O)NC | 48.9 | > 100 | > 100 | > 100 | 86 | 40.7 | > 100 | > 100 | > 100 | > 100 | > 100 | > 100
O=C(c1ccc(Cl)c(Cl)c1)N(C(=O)N1CCN(c2ccccc2)CC1)S(=O)(=O)c1ccccc1 | > 100 | 64.5 |  | > 100 | > 100 | 39.7 | 40.5 | > 100 | > 100 | > 100 | 62.8 | 87.9
Nc1ncc(N)c(NCC2(CO)CC(CCc3ccccc3)C2)n1 (stereo not drawn) | 0.987 | 28.5 | 22.4 | 4.34 | 13.2 | 3.58 | 16.6 | 27.9 | 28.8 | 29.4 | 21.5 | 18.4
N#CCCN(CCCN(C(=O)Nc1ccc(NC(=O)N(CCCN(CCC#N)C(N)=O)c2ccccc2)cc1)c1ccccc1)C(N)=O | > 100 | > 100 |  | > 100 | > 100 | > 100 | > 100 | > 100 | > 100 | > 100 | > 100 | > 100
Cc1ccc2nc(-c3ccc(-c4nc5ccc(C)cc5o4)c(O)c3)oc2c1 | > 100 | > 100 |  | > 100 | > 100 |  | > 100 | > 100 | > 100 | > 100 | > 100 | > 100
O=C(CSc1nc2ccc(I)cc2c(=O)n1Cc1ccccc1)NN1C(=O)CSC1c1ccccc1 (stereo not drawn) | 58.9 | > 100 | 55.6 | > 100 | > 100 | 35.5 | 39.1 | 95.9 | > 100 | > 100 | > 100 | > 100
Cc1cc(C)nc(NS(=O)(=O)c2ccc(Nc3nnc(/C=C/c4c(O)ccc5ccccc45)c(=O)n3N)cc2)n1 | 66.8 | 75.4 | > 100 | > 100 | 55.6 |  |  |  | > 100 | 55.9 | 81.6 | 
CCC1(CC)C(=O)NN(C(=O)c2ccc(Cl)cc2)C1=O | > 100 | > 100 | > 100 | > 100 | > 100 | > 100 | > 100 | > 100 | > 100 | > 100 | > 100 | > 100
COc1ccc(C(c2cc(OC)c(OC)c(OC)c2)N2C(=O)CCC2C(=O)O)cc1 (stereo not drawn) | > 100 | > 100 | > 100 | > 100 | > 100 | > 100 | > 100 | > 100 | > 100 | > 100 | 56.9 | > 100
N#CCN1CCN(CC#N)CCN(CC#N)CCN(CC#N)CC1 | > 100 | > 100 | > 100 | > 100 | > 100 | > 100 | > 100 | > 100 | > 100 | > 100 | > 100 | > 100
C=C1C(=O)OC2/C=C(\C)CC/C=C(\C)CC(OC(=O)/C(=C/CO)CO)[C@@H]12 (stereo partly drawn) | 12.6 | 31.3 | 26.1 | 6.75 | > 23.8 | 3.5 | 31.1 | 31.2 | 57.3 | 29.8 | 20.2 | > 80.4
CC1(C)N([O-])[N+](=O)C1(Br)c1ccccc1 (stereo not drawn) | > 100 | > 100 | > 100 | > 100 | > 100 |  | > 100 | > 100 | > 100 | > 100 | > 100 | > 100
COCCNC1CCC(=O)c2[nH]c3ccccc3c21 (stereo not drawn) | > 100 | > 100 | > 100 | > 100 | > 100 | > 100 | > 100 | > 100 | > 100 | > 100 | > 100 | > 100
COC(=O)C1=C(C(=O)OC)C(OO)(c2ccccc2)OC1=O (stereo not drawn) | > 100 | > 100 | > 100 | > 100 | > 100 | > 100 | 96 | > 100 | > 100 | > 100 | > 100 | > 100
COc1ccc2oc(=O)c(-c3csc(-c4ccccc4)n3)cc2c1 | > 100 | > 100 | > 100 | > 100 | > 100 |  | > 100 | > 100 | > 100 | 71.7 | > 100 | > 100
COc1cc(/C=C2\CC(C)C/C(=C\c3ccc(O)c(OC)c3)C2=O)ccc1O (stereo not drawn) | > 30.6 | 40.8 | 5.88 | > 45 | > 25.5 | 3.86 | 5.79 | 8.95 | 17.8 | 15 | 7.37 | 17.6
Cc1ccc(/C=C2\CCCCCC2=O)cc1 | > 100 | > 100 | > 100 | > 100 | > 100 | > 100 | > 100 | > 100 | > 100 | > 100 | > 100 | > 100
CC(C)(C)OC(=O)NC(Cc1ccc(OCc2ccccc2)cn1)C(N)=O (stereo not drawn) | > 100 | > 100 | > 100 | > 100 | > 100 | > 100 | > 100 | > 100 | > 100 | > 100 | > 100 | > 100
O=[N+]([O-])c1cc2ccc1OCc1cccc(n1)COc1ccc(cc1[N+](=O)[O-])C=NCCCCCCCCN=C2 |  | > 100 | > 100 | > 100 | > 100 | > 100 | > 100 | > 100 | > 100 | > 100 | > 100 | > 100
CN(C)c1cccc(/C=C(\C#N)c2ccccc2)c1 | 1.34 | 64 | > 72.5 | > 37.3 | > 8.15 | 5.75 | > 59.5 | > 100 | > 79.9 | 5.05 | 0.161 | 24.6
CCOC(=O)CON=c1c2ccccc2ccc2ccccc12 | > 100 | > 100 | > 100 | > 100 | > 100 |  | > 100 | > 100 | > 100 | > 100 | > 100 | > 100
Cc1ncc([N+](=O)[O-])n1CCNC(=O)Cn1ccnc1[N+](=O)[O-] | > 100 | > 100 | > 100 | > 100 | > 100 | > 100 |  | > 100 | > 100 | > 100 | > 100 | > 100
N#Cc1nc(-c2ccc(-c3nc(C#N)c(N)o3)cc2)oc1N | > 10 |  | > 10 | > 10 | > 10 | > 10 | > 10 | > 10 | > 10 | > 10 | > 10 | > 10
CN(C(=O)c1cc2c(s1)sc1c(=O)n(C)c3ccccc3c12)c1ccccc1 |  | > 100 | > 100 | > 100 | > 100 | > 100 | > 100 | > 100 | > 100 | > 100 | > 100 | > 100
COC(=O)/C=C1/OC(c2ccc(C)cc2C)=CC1=O | > 100 | 31.7 | 22 | > 100 | > 100 | 43.3 | 17.6 | 36.3 |  | 29.4 | 36.4 | 48.9
CN(C)CCN=C1Nc2ccccc2C(=O)N2CSCC12 (stereo not drawn) |  | > 100 | > 100 | > 100 | > 100 | > 100 | > 100 | > 100 | > 100 | > 100 | > 100 | > 100
Oc1ccccc1-c1n[nH]c(-c2ccccc2O)n1 | > 23.7 | > 100 | > 100 | > 100 | > 100 |  | > 100 | > 100 | > 100 | > 100 | > 100 | > 100
CCNC1=C(NC(=O)c2ccc(OC)cc2)C(=O)c2ccccc2C1=O | > 100 | > 100 | > 100 | > 100 | > 100 | > 100 |  | > 100 | > 100 | > 100 | > 100 | > 100
